Consider one molecule from patent publication US10604512B2, “3-(1H-indol-2-yl)-1H-indazoles and therapeutic uses thereof” (Samumed, LLC, priority 2015, dated 2020).

Common to all, as to type: cell-based
The subject of assay [1] is SW480 colon cancer cells. Nature of the assay: Cell viability assay (CellTiter-Blue) in SW480 colon cancer cells. The following applies: Homo sapiens, 96 h, four days, CellTiter-Blue. In a few lines:
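Four-day viability readout in SW480 cells: compound at 0.0045–10 μM (1:3 series), DMSO controls in eight replicates, CellTiter-Blue fluorescence after ~3 h. Values are regression-derived EC50s, or percent inhibition at 10 μM when EC50 exceeds 10 μM.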

Assay [2] concerns IL-6. As to the kind of experiment: Inhibition of IL-6 in LPS-stimulated THP-1 human monocyte cells (HTRF). The conditions noted are these: IL-6 inhibition, LPS-stimulated THP-1 cells, HTRF. The gist of the method:
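THP-1 cells serum-reduced (1% FBS, 24 h), then 5000 cells/well preincubated 2 h with compound (10-point 1:3 series from 10 μM, 0.1% DMSO) before 500 ng/mL LPS for 22 h at 37 °C. Secreted IL-6 quantified by HTRF 665/620 ratio; DMSO-normalised duplicates fitted to four-parameter EC50; above 10 μM, % inhibition at 10 μM given.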

The test system of assay [3] is Wnt activity (Sp5-Luc reporter, TCF/LEF binding sites) in SW480 colon carcinoma cells. As to the kind of experiment: Screening assay for Wnt activity: Sp5-Luc reporter gene assay in stably transduced SW480 colon carcinoma cells. The conditions noted are these: Homo sapiens, overnight incubation, 10-point curve from 10 μM. In a few lines:
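SW480 cells stably transduced with a luciferase reporter driven by an Sp5 promoter of eight TCF/LEF sites were plated at 4,000 cells/well in 1% FBS medium. They were exposed overnight at 37° C to a 10-point 1:3 dilution series from 10 μM (0.1% DMSO). Luminescence was normalized to DMSO for four-parameter EC50, or percent inhibition at 10 μM.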

The subject of assay [4] is primary human mesenchymal stem cells (hMSCs). Nature of the assay: Induction of chondrogenesis in primary human mesenchymal stem cells (nodule imaging, Rhodamine B / Nile Red). As to the method:
Representative compounds were screened using primary human mesenchymal stem cells (hMSCs) to determine their ability to induce chondrogenesis (process by which cartilage is developed).
Primary human mesenchymal stem cells (hMSCs) were purchased from Lonza (Walkersville, Md.) and expanded in Mesenchymal Stem Cell Growth Media (Lonza). Cells between passage 3 and 6 were used for the experiments.
Each compound was dissolved in DMSO as a 10 mM stock and used to prepare compound source plates. For the 96 well assay, serial dilution (1:3, 6-point dose-response curves from 2700 nM to 10 nM) and compound transfer was performed using the ECHO 550 (Labcyte, Sunnyvale, Calif.) into 96-well clear bottom assay plates (Greiner Bio-One) with appropriate DMSO backfill for a final DMSO concentration of 0.03%. hMSCs were plated at 20,000 cells/well in 250 μL/well Incomplete Chondrogenic Induction Medium (Lonza; DMEM, dexamethasone, ascorbate, insulin-transferrin-selenium [ITS supplement], gentamycin-amphotericin [GA-1000], sodium pyruvate, proline and L-glutamine). TGF-β3 (10 ng/mL) was used as a positive control for differentiation while negative control wells were treated with 75 nL DMSO for normalization and calculating EC50 values. For the 384 well assay, serial dilution (1:3, 8-point dose-response curves from 5000 nM to 2.2 nM) and compound transfer was performed using the ECHO 550 (Labcyte, Sunnyvale, Calif.) into 384-well clear bottom assay plates (Greiner Bio-One) with appropriate DMSO backfill for a final DMSO concentration of 0.03%. hMSCs were plated at 8,000 cells/well in 80 μL/well Incomplete Chondrogenic Induction Medium (Lonza; DMEM, dexamethasone, ascorbate, insulin-transferrin-selenium [ITS supplement], gentamycin-amphotericin [GA-1000], sodium pyruvate, proline and L-glutamine). TGF-β3 (10 ng/mL) was used as a positive control for differentiation while negative control wells were treated with 25 nL DMSO for normalization and calculating EC50 values. Cells were incubated at 37° C. and 5% CO2 for 6 days. To image chondrogenic nodules, the cells were fixed using 4% formaldehyde (Electron Microscopy Sciences), and stained with 2 μg/mL Rhodamine B (Sigma-Aldrich) and 20 μM Nile Red (Sigma-Aldrich) [Johnson K., et. al, A Stem CellBased Approach to Cartilage Repair, Science, (2012), 336(6082), 717-721]. The nodules imaged (25 images per well for 96 well plates and 9 images per well for 384 well plates at 10× magnification) by excitation at 531 nm and emission at 625 nm and quantified using the CellInsight CX5 (Thermo Scientific). Area of nodules in each well was normalized to the average of 3 DMSO treated wells on the same plate using Excel (Microsoft Inc.). The normalized averages (fold change over DMSO) of 2 or 3 replicate wells for each compound concentration were calculated. Due to solubility limitations of some of the compounds, curve fitting was incomplete leading to inaccurate EC50 determinations.
Using TGF-β3 as a positive control, the concentration of representative compounds required to induce 50% levels of chondrogenesis is reported. In addition, the maximum activity of each compound and the respective dose that each compound reached maximum chondrogenesis activity is reported.

As for `COc1cncc(-c2ccc3[nH]nc(-c4cc5c(-c6ccoc6)cccc5[nH]4)c3c2)c1` [Compound 720, 3-(4-(Furan-3-yl)-1H-indol-2-yl)-5-(5-methoxypyridin-3-yl)-1H-indazole], the EC50 in assay [1] was found to be 1400 nM; in assay [2], 329 nM; in assay [3], 588 nM; in assay [4] (concentration required to induce 50% levels of chondrogenesis vs TGF-β3 positive control, read-out: Conc (nM) of 50% TGF-β3 activity) it was 10 nM. In addition, the Emax in assay [4] (maximum chondrogenesis activity relative to TGF-β3 (10 ng/mL) positive control, read-out: Max. Activity as % TGF-β3 activity) worked out at 151%.
